Where two headings read alike, the source gives them in different places.
Columns and labels:
ESC-derived neurons = conditions: for In vitro EC20 in ESC-derived neurons: in vitro toxicity data expressed as EC20
From the text: (§1) Fig. 1 Synopsis of experimental protocols. The impact of compounds on neural promoter activity (FLuc, Firefly Luciferase under the control of the Tα1 promoter), general promoter activity (RLuc, Renilla Luciferase under the control of the EF1α promoter), and amount of DNA (PI, propidium iodide fluorescence in cell homogenates) was investigated in undifferentiated mouse embryonic pluripotent stem cells (ESCs) and on ESC-derived neurons. Arrows indicate the time of measurement of the three parameters. a Protocol for testing compounds effects on ESCs. CGR8-2Luc cells were plated on gelatin-coated 96-well plates in maintenance medium (BHK21 medium containing 10 % FCS, L-glutamine, NEAA, P/S, and LIF). Twenty-four hours later, cells were exposed to compounds for forty-eight hours. b Protocol for testing compounds on ESC-derived neurons. CGR8-2Luc cells were co-cultured with MS5 cells to induce neural differentiation in DMEM medium containing 15 % KO-serum, NEAA, β-mercaptoethanol, and P/S. On day 5, cells were detached and seeded on polyornithine-coated plates in DMEM medium containing N2 supplement, bFGF, and P/S; compound exposure was from day 6 to day 8
(§2) To test compounds on ESC-derived neurons, neuronal differentiation was carried out as previously described (Suter et al. [2009]; Xu et al. [2014]). Briefly, CGR8-2Luc cells were seeded on irradiated bone marrow-derived stromal MS5 cells and cultivated for 4 days in DMEM medium containing 15 % Knock-out™ Serum Replacement, non-essential amino acids, beta-mercaptoethanol, and penicillin/streptomycin. At day 5, cells were then re-plated (3 × 10^5 cells/cm^2) on polyornithine-coated 96-well plates in N2 medium containing DMEM, N2 supplement, penicillin/streptomycin, and 10 ng/ml basic human fibroblast growth factor (bFGF) (Invitrogen). […] To assess toxicity of compounds on undifferentiated pluripotent stem cells (ESCs), CGR8-2Luc cells were plated at 45,000 cells/cm^2 on 0.1 % gelatin-coated dishes in BHK21 medium, supplemented with 10 % fetal calf serum, L-glutamine, non-essential amino acids, penicillin/streptomycin, and leukemia inhibitory factor (LIF). After 24 h, compounds were added and incubated for 48 h, before luciferase expression and PI fluorescence were analyzed. In all experiments, methylmercury was used as a positive control at a concentration of 5 µM.
(§3) Luciferase activities were measured with a Dual-Luciferase™ Reporter system kit. CGR8-2Luc ES cells were lysed in 96-well plates according to the manufacturer’s instructions. Luminescence measurements were performed on a Fluostar Optima reader. Luminescence counts were expressed as percentage of promoter activity normalized by comparison with the control wells treated by DMSO. […] parameters were measured in homogenates of ESCs and in ESC-derived neurons: (1) FLuc, reflecting the activity of early neural promoter Tα1. FLuc increases during neuronal differentiation. Many neurotoxic compounds may affect FLuc expression, either through impact on neuronal differentiation, through changes of neuronal gene expression, or through killing of neurons.
After measurement of luciferase activity, DNA quantity was determined by PI assay, as previously described (Xu et al. [2014]). […] After incubation, fluorescence intensity was measured on a Flexstation 3 microplate reader (Excitation: 544 nm ± 15 nm; Emission: 620 nm ± 15 nm). Results are expressed as percentage of control. […]

[1] = cited from earlier work
[2] = system: undifferentiated pluripotent stem cells (ESCs); test: Dual luminescence reporter test system, undifferentiated ESCs (readout not separated); assay type: cell-based, mouse; conditions: for In vitro EC20 in ESC: in vitro toxicity data expressed as EC20; for effect on promoter activities in undifferentiated cells: non-cytotoxic concentrations
From the text: as §1, §2, §3
After measurement of luciferase activity, DNA quantity was determined by PI assay, as previously described (Xu et al. [2014]). PI was added to cell homogenates after the luciferase test, at a final concentration of 50 µg/ml and incubated for 2 h. After incubation, fluorescence intensity was measured on a Flexstation 3 microplate reader (Excitation: 544 nm ± 15 nm; Emission: 620 nm ± 15 nm). Results are expressed as percentage of control. Propidium iodide (PI) measures total DNA content as an approximation of the cell number.

[3] = extracted from the literature; cited from earlier work
plasma protein = conditions: cited from earlier work; for fb,pl (plasma bound fraction): extracted from the literature (geldanamycin value assumed)
[4] = PBPK reverse modeling of nominal equivalent concentration (NEC), rat data
Protocol: The lipid content and albumin concentrations of the test media N2 and BHK medium were calculated on the basis of the available information provided by the suppliers (Fig. S2A). The data on rat plasma have been adopted from (Verwei et al. [2006]). The original references are (Barber et al. [1990]) for albumin and (DeJongh et al. [1997]) for lipids. Human plasma values were taken from (Gulden and Seibert [2003]). The original data on albumin are from (Lindup [1987]) and for lipids from (Patterson et al. [1988]). Total protein concentrations were calculated based on the assumption that the protein molar mass is similar to the one of albumin (66 kDa). Albumin was assumed to represent 60 and 48 % of the total serum proteins (mg/ml) in human and rat (Baker et al. [1979]; Busher [1990]) (Fig. S2A).
(a) Developmental toxicity (DT)—inducing concentrations were extrapolated from the in vivo study reported in the document by the Australian Therapeutic Goods Administration (Australian Therapeutic Goods Administration [2014]). […] (b) Toxicokinetic parameters of abiraterone in rats were extracted from the available report from the TGA (Australian Therapeutic Goods Administration [2014]). […] (c) The nominal in vitro concentrations equivalent to the concentration used in vivo were calculated using the value of total protein concentration instead of albumin concentration. […]
(c) The nominal in vitro concentrations equivalent to the concentration used in vivo in rats and humans (Cmax and Cavg) were determined assuming only binding to the specific drug-binding proteins (albumin and/or α1-acid glycoprotein) (Fig. S2D).

Toxicokinetics in rats = assay type: in vivo; conditions: plasma, rat
[5] = Sprague Dawley, oral, rats, 0.3 mg/kg, estimated proportional to reported kinetics at 1 mg/kg (US FDA [2012])

Row | Compound | In vitro EC20 in ESC-derived neurons (ESC-derived neurons) [µM] | In vitro EC20 in ESC [2] [µM] | Kow (octanol:water partition coefficient) [3] | fb,pl (plasma bound fraction) (plasma protein) | Free concentration in vivo ([4]; Cmax) [nM] | Total concentration in vivo (ECpl) ([4]; Cmax) [µM] | effect on promoter activities in undifferentiated cells [2] | other results
1 | C[C@]12CC[C@H](O)CC1=CC[C@@H]1[C@@H]2CC[C@]2(C)C(c3cccnc3)=CC[C@@H]12 [Abiraterone] | 0.7 | 2 | 131826 | 0.998 | 0.00013 | 0.0309 | – | concentration affecting neural differentiation (decrease of neuronal and general promoter activities) (ESC-derived neurons; ESC-derived neurons, no change in cell number): higher than 0.5 µM; AUC at steady state ([1]; humans, daily oral dose of 1000 mg as abiraterone acetate, ref Goldberg and Berrios-Colon [2013]): 1.173 µg·h/mL; Cmax ([1]; humans, daily oral dose of 1000 mg/kg as abiraterone acetate, ref Goldberg and Berrios-Colon [2013]): 226 ng/mL; percentage of plasma protein binding (plasma protein; without relevant species differences, ref US FDA [2011]): 99.8%; Free concentration in vivo ([4]; Cavg): 1.68e-05 nM; Total concentration in vivo (ECpl) ([4]; Cavg): 0.00401 µM
2 | O=C(/C=C/c1cccc(S(=O)(=O)Nc2ccccc2)c1)NO [Belinostat] | – | – | – | – | – | – | enhanced the activities of neuronal and/or general promoters | –
3 | Nc1ccccc1NC(=O)c1ccc(CNC(=O)OCc2cccnc2)cc1 [Entinostat] | – | – | – | – | – | – | enhanced the activities of neuronal and/or general promoters | –
4 | COC1=C2C[C@@H](C)C[C@H](OC)[C@H](O)[C@@H](C)/C=C(\C)[C@H](OC(N)=O)[C@@H](OC)/C=C\C=C(/C)C(=O)NC(=CC1=O)C2=O [Geldanamycin] | 0.001 | 0.01 | 417 | 0.990 | 8.91 | 2.23 | – | Cmax (Toxicokinetics in rats; Thy1-GFP transgenic, dose of 0.2 mg/kg, calculated from mouse volume of distribution): 1250 ng/mL
5 | [Br][Hg][Br] [Mercury bromide] | – | – | – | – | – | – | – | concentration up to which neurons were not affected (ESC-derived neurons): 5000 nM
6 | C/C(O)=C(\C#N)C(=O)Nc1ccc(C(F)(F)F)cc1 [Teriflunomide] | 10 to 20 | 4 to 40 | 327 | 0.995 | 25.6 | 11.1 | – | 24 h AUC at steady state ([1]; healthy individuals, daily oral dose of 14 mg, ref Australian Therapeutic Goods Administration [2013]): 1070 µg·h/mL; average bound fraction in plasma (plasma protein; ref Russo et al. [2013]): 99.46%; AUC (Toxicokinetics in rats; [5]): ~33 µg·h/mL; Cmax (Toxicokinetics in rats; [5]): ~3000 ng/mL; Free concentration in vivo ([4]; Cavg): 11.7 nM; Total concentration in vivo (ECpl) ([4]; Cavg): 5.09 µM
7 | CCCC(CCC)C(=O)O [Valproic acid] | – | – | – | – | – | – | enhanced the activities of neuronal and/or general promoters | –
